Key:
[1] = test system: fibronectin, collagen 1, α-SMA; assay: Immunohistochemistry of fibrosis-related proteins in lung tissue, BLM model; format: in vivo, C57BL/6N mice; conditions: BLM mice; for expression of α-SMA, collagen, and fibronectin in lung tissue (IHC): compared to the BLM group
Procedure: Specifically, 7-week-old C57BL/6N mice were exposed to BLM (3-5 units/kg) via the airway. The compounds were administered orally at doses of 200 μg/kg and 500 μg/kg for Compound 1, and 100 μg/kg and 200 μg/kg for Compound 2, three times a week for three weeks starting the day after BLM exposure. Body weight gain was periodically measured during the experimental period, and lung weight was measured at the end of the experiment.
Specifically, the excised lung tissue was embedded in paraffin and sectioned into 4 μm slices using a microtome. These tissue sections were used for H&E, MT stain, and Immunohistochemistry (IHC). Each experiment was conducted by deparaffinizing and rehydrating the sections using xylene and ethanol. For IHC, the LSAB2 system HRP (DAKO, Carpinteria, CA, USA) kit was used. Antibody retrieval was performed in 0.1 mM citric acid (pH 6), and the experiment was conducted according to the provided instructions. The sections were blocked with blocking buffer at room temperature for 1 hour, then incubated overnight at 4° C. with primary antibodies (fibronectin, collagen 1, α-SMA). After blocking with secondary antibodies at room temperature for 1 hour, the Streptavidin-HRP system was used for 10 minutes, followed by exposure to DAB solution, hematoxylin staining, dehydration, clearing, and mounting with Canada balsam. The stained slides were examined under an optical microscope (BK51, Olympus, Japan). The staining results were quantified using the Image J program.
To examine the key factors involved in fibrosis, immunohistochemistry (IHC) was performed using the same method as in Example 6-3.

DHLF-IPF cells [2] = assay: Microscopic examination of cell morphology and proliferation, TGF-β1-induced DHLF-IPF; format: cell-based, human; conditions: microscope, FIG. 4a
Procedure: (§1) The effects of the two candidate compounds of sulforaphane prodrugs on cytotoxicity and morphological changes in normal lung fibroblast MRC-5 cells and diseased lung fibroblast DHLF-IPF cells were examined. The diseased lung fibroblast DHLF-IPF cell line was purchased from Lonza and cultured in FGM™-2 Fibroblast Growth Medium-2 BulletKit™ at 37° C. in a 5% CO2 incubator.
(§2) Additionally, the changes in cell morphology of two lung fibroblasts induced by TGF-β1 according to the treatments with Compound 1 and Compound 2 were examined with the naked eye through a microscope.

FN, COL1A1, and α-SMA [3] = assay: qRT-PCR of fibrosis-related genes in TGF-β1-induced MRC-5 cells; format: cell-based, human; conditions: MRC-5, 10 μM pretreatment 1 hour, TGF-β1 1 ng/ml 48 hours, FIG. 4c/4d
Procedure: (§3) MRC-5 and DHLF-IPF cells were each cultured in growth medium, and the medium was removed. […] The medium was then removed, and the cells were washed once with PBS. Intracellular total RNA was extracted from the cultured cells using TRIzol reagent (TaKaRa Bio Inc., Japan) for gene expression analysis. 1 mL of TRIzol reagent was added to lyse the cells and denature the tissue. The lysate was transferred to each 1.5 mL tube, and 200 μL of chloroform was added thereto, followed by vortexing for 20 seconds to ensure complete mixing. After incubating at room temperature for 15 minutes, the mixture was centrifuged at 14,000 rpm for 20 minutes to obtain the supernatant. After adding an equal volume of isopropyl alcohol, the tubes were inverted and incubated at room temperature for 10 minutes. The sample was centrifuged at 14,000 rpm for 15 minutes to obtain an RNA pellet, which was washed by centrifugation with 70% ethanol for use on RNA at 14,000 rpm for 5 minutes, and dried for 5 minutes. The dried RNA sample was added with 20 μL of distilled water treated with 0.1% diethyl pyrocarbonate (DEPC) to dissolve the pallet and the resultant was used as a sample for cDNA synthesis. 1 μL of the same was used to measure the RNA concentration and purity at O.D. 260/280 nm using a Nanodrop.
(§4) Single-stranded cDNA synthesis was performed by mixing 1 μg of the extracted total RNA with 1 μL of oligo-d(T) primer ([…]) and 10 mM dNTP (TaKaRa Bio Inc., Japan), reacting at 65° C. for 5 minutes, followed by rapid cooling. To this template, 4 μL of 5×RT buffer, 0.5 μL of RNA inhibitor, and 100 units of RTase (TaKaRa Bio Inc., Japan) were added, and the total volume was adjusted to 20 μL using DEPC-treated distilled water. […]
(§5) Each gene expression level was measured using real-time PCR. […] The specificity of the amplified product was confirmed through melting curve analysis, and the target genes were quantified and compared using GAPDH as a control gene.

DHLF-IPF cells [4] = assay: Transwell migration assay, DHLF-IPF; format: cell-based, human; conditions: inherent high migration, 24 hours, FIG. 5
Procedure: (§6) In accordance with the characteristics of myofibroblasts, in which the increased expression of proteins related to fibrogenesis leads to an increase of cell migration and invasion, migration and wound healing assays were conducted to examine the effects of the final selected Compound 1 and Compound 2 on cell migration using normal and diseased fibroblasts.
(§7) A 24-well culture plate was prepared with 500 μL of medium including FBS, and an 8 μm pore size insert was placed on top. Inside the insert, 300 μL of medium without FBS was added, and MRC-5 and DHLF-IPF cells were seeded at a density of 1×10^5 cells. […] After incubation, the medium inside the 8 μm pore polycarbonate membrane insert was carefully removed, washed with DPBS, and fixed in methanol for 5 minutes. The cells were then stained with Mayer's Haematoxylin for 8 minutes after washing twice with triple-distilled water. The stained cells were washed with DPBS, gently wiped with a cotton swab inside the insert, and the membrane was cut out and mounted on a slide. The migrated cells were counted under a microscope at 200× magnification.

FN, COL1A1, and α-SMA [5] = assay: qRT-PCR of fibrosis-related genes in TGF-β1-induced DHLF-IPF cells; format: cell-based, human; conditions: 10 μM pretreatment 1 hour, TGF-β1 1 ng/ml 48 hours, FIG. 4c/4d
Procedure: as §3, §4, §5

MRC-5 cells [6] = assay: Microscopic examination of cell morphology and proliferation, TGF-β1-induced MRC-5; format: cell-based, human; conditions: MRC-5, TGF-β1-induced, microscope, FIG. 4a
Procedure: as §1, §2

MRC-5 cells [7] = assay: Transwell migration assay, MRC-5; format: cell-based, human; conditions: MRC-5, TGF-β1 treatment, 24 hours, FIG. 5
Procedure: as §6, §7

Row | SMILES | expression of α-SMA, collagen, and fibronectin in lung tissue (IHC) [1] | cell morphology (DHLF-IPF cells [2]) | inhibition of cell proliferation compared to sulforaphane-treated group (DHLF-IPF cells [2]) | gene expression levels of FN, COL1A1, and α-SMA (FN, COL1A1, and α-SMA [3]) | cell migration (transwell) (DHLF-IPF cells [4]) | gene expression levels of FN, COL1A1, and α-SMA (FN, COL1A1, and α-SMA [5]) | cell morphology (MRC-5 cells [6]) | inhibition of cell proliferation compared to sulforaphane-treated group (MRC-5 cells [6]) | cell migration (transwell) (MRC-5 cells [7]) | concentration with the best inhibitory effect on weight recovery and related protein expression ([1]; 200 vs 500 μg/kg) [µg/kg]
1 | C=CCOC(=O)C(CSC(=S)NCCCC[S+](C)[O-])NC(C)=O (stereo not shown) [Compound 2] | significant reduction in the BLM+GSF-018 group in a dose-dependent manner | thin and elongated shape, which is similar to that of the control group | inhibition of cell proliferation was more significant | significantly reducing the expression levels compared to sulforaphane | significantly inhibited in a dose-dependent manner | significantly reducing the expression levels compared to sulforaphane | thin and elongated shape, which is similar to that of the control group | inhibition of cell proliferation was more significant | significantly inhibited in a dose-dependent manner | 
2 | CCOC(=O)C(CSC(=S)NCCCC[S+](C)[O-])NC(C)=O (stereo not shown) [Compound 1] | significant reduction | thin and elongated shape, which is similar to that of the control group | inhibition of cell proliferation was more significant | significantly reducing the expression levels compared to sulforaphane | significantly inhibited in a dose-dependent manner | significantly reducing the expression levels compared to sulforaphane | thin and elongated shape, which is similar to that of the control group | inhibition of cell proliferation was more significant | significantly inhibited in a dose-dependent manner | 200
